{"source": "patent US4680311A", "about": "“Method for the treatment of systemic mycosis” (Taisho Pharmaceutical Co., Ltd., priority 1985, dated 1987)", "key": {"fungi": {"test_system": "fungi", "conditions": "A. Miyake, Chem. Pharm. Bull., 8, 1071 (1960); cited from earlier work"}, "Candida albicans [1]": {"test_system": "Candida albicans", "type": "in vivo, Candida albicans TIMM 0239 in female SPF Crj:CD-1 (ICR) mice", "conditions": "for Survival rate / Average viable counts recovered (per mouse): twice daily, 14 days; for Survival rate: control 0/5; for Average viable counts recovered (per mouse): kidneys, control 4.87 × 10^7", "procedure": "(§1) Female SPF mice Crj:CD-1 (ICR) strain, 4 weeks of age, weighing 18 g±1 g, were used as test animals. One loopful organisms of Candida albicans TIMM 0239 grown on Sabouraud's glucose agar slants were inoculated into Sabouraud's glucose broth containing 0.5% yeast extract. Then cultures were grown aerobically at 37° C. for 18 hours. The organisms were harvested from the cultures, washed twice with sterilized physiological saline, and finally suspended in saline. A total number of organisms was counted in a Burker-Turk hemocytometer. Thus prepared cell suspension was adjusted to contain 10^6 cells/ml, 0.2 ml of which was then injected into the tail vein in each mouse. Infected mice were allocated randomly to different groups. Each group consisted of eight mice.\n(§2) (S)-2-amino-5-hydroxy-4-oxopentanoicacid was dissolved in sterilized physiological saline. The mice in the treated groups received the solution of this compound in a dose of 50 mg per kg mouse body weight once daily via an intravenous, subcutaneous, intraperitoneal or oral route for 5 consecutive days, starting on the day of infection. The first treatment was given immediately after a challenge of Candida albicans. The untreated control animals were intravenously given the same volume of saline in place of the test compound solution. The animals were observed daily for 10 days postinfection.\nThe same experimental conditions as for Test Example 1 were employed, except that all groups of five animals were infected with 1.0×10^6 organisms and treated with either 25, 50 or 100 mg/kg of the test compound twice daily for 14 consecutive days. Duration of observation period was two weeks after infection.\nThe criteria to evaluate efficacy of the test compound include survival rate and viable counts of Candida albicans recovered from the kidneys of infected animals. Both kidneys were excised from all the animals at the end of the experimental period, homogenized and cultured on Sabouraud's glucose agar plates for assay of viable counts."}, "[2]": {"test_system": "Candida albicans TIMM 0239", "assay": "Test Example 1: survival of mice with systemic Candida albicans infection", "type": "in vivo, Candida albicans TIMM 0239 in female SPF Crj:CD-1 (ICR) mice", "conditions": "for Survival rate: 50 mg/kg once daily, 5 days, observed 10 days postinfection, control 0/8", "procedure": "as §1, §2"}, "[3]": {"test_system": "pathogenic human tubercle bacilli", "conditions": "A. Miyake, Chem. Pharm. Bull., 8, 1071 (1960); cited from earlier work"}, "mice": {"test_system": "mice", "assay": "Acute toxicity in mice", "type": "in vivo", "source_text": "(§3) This finding leads the inventors to possible usefulness of this substance for the therapy of human cases of candidiasis and other systemic mycoses. This substance is an extremely specific antimycotic agent in that it quite differs in chemical structure from any existing antimycotic agents."}, "Acute toxicity in mice": {"assay": "Acute toxicity in mice", "type": "in vivo", "conditions": "mouse, in vivo, mice", "source_text": "as §3"}, "Candida albicans [4]": {"test_system": "Candida albicans", "assay": "protective and therapeutic efficacy in mice experimentally infected with Candida albicans", "type": "in vivo", "procedure": "as §1\nas §2, with “postinfection. […]” for “postinfection.”"}}, "note": "Like-named read-outs stand apart in the source and are kept apart here.", "data": [{"smiles": "N[C@@H](CC(=O)CO)C(=O)O", "note": "[(S)-2-amino-5-hydroxy-4-oxopentanoicacid]", "values": [{"measurement": "in vitro antimycotic activity", "setting": "fungi", "value": "does hardly exert an in vitro antimycotic activity"}, {"measurement": "Survival rate", "setting": "Candida albicans [1]; 25 mg/kg oral", "value": "1/5"}, {"measurement": "Survival rate", "setting": "Candida albicans [1]; 50 mg/kg oral", "value": "2/5"}, {"measurement": "Survival rate", "setting": "Candida albicans [1]; 100 mg/kg oral", "value": "5/5"}, {"measurement": "Average viable counts recovered (per mouse)", "setting": "Candida albicans [1]; 25 mg/kg oral", "value": "1.45 × 10^7 per mouse"}, {"measurement": "Average viable counts recovered (per mouse)", "setting": "Candida albicans [1]; 50 mg/kg oral", "value": "1.41 × 10^6 per mouse"}, {"measurement": "Average viable counts recovered (per mouse)", "setting": "Candida albicans [1]; 100 mg/kg oral", "value": "2.41 × 10^5 per mouse"}, {"measurement": "correlation between therapeutic efficacy and oral dose", "setting": "Candida albicans [1]; oral, 25, 50 or 100 mg/kg", "value": "close correlation"}, {"measurement": "Survival rate", "setting": "[2]; intraperitoneal", "value": "0/8"}, {"measurement": "Survival rate", "setting": "[2]; intravenous", "value": "4/8"}, {"measurement": "Survival rate", "setting": "[2]; oral", "value": "4/8"}, {"measurement": "Survival rate", "setting": "[2]; subcutaneous", "value": "0/8"}, {"measurement": "therapeutic efficacy", "setting": "[2]; especially by intravenous or oral route, murine systemic candidiasis", "value": "significant therapeutic efficacy"}, {"measurement": "activity against pathogenic human tubercle bacilli", "setting": "[3]", "value": "highly active"}, {"measurement": "toxicity compared with existing antimycotic drugs", "setting": "mice; acute toxicity, mice", "value": "lower than that of any existing antimycotic drugs"}, {"measurement": "tolerability in experimental animals", "setting": "mice; mouse, in vivo", "value": "very high tolerability"}, {"measurement": "LD50", "setting": "Acute toxicity in mice; ip", "value": "≥ 5000", "unit": "mg/kg"}, {"measurement": "LD50", "setting": "Acute toxicity in mice; po", "value": "≥ 6000", "unit": "mg/kg"}, {"measurement": "LD50", "setting": "Acute toxicity in mice; sc", "value": "≥ 5000", "unit": "mg/kg"}, {"measurement": "protective and therapeutic efficacy", "setting": "Candida albicans [4]", "value": "significant protective and therapeutic efficacy"}]}]}
